One block for each compound: values may come before it.
Columns and labels:
[1] = target: T1, Muscle, skeletal receptor tyrosine-protein kinase (Homo sapiens) (UniProt O15146); assay: Inhibition of human MUSK at 18.6 nM by HotSpot assay relative to control
T1 sequence (whole entry): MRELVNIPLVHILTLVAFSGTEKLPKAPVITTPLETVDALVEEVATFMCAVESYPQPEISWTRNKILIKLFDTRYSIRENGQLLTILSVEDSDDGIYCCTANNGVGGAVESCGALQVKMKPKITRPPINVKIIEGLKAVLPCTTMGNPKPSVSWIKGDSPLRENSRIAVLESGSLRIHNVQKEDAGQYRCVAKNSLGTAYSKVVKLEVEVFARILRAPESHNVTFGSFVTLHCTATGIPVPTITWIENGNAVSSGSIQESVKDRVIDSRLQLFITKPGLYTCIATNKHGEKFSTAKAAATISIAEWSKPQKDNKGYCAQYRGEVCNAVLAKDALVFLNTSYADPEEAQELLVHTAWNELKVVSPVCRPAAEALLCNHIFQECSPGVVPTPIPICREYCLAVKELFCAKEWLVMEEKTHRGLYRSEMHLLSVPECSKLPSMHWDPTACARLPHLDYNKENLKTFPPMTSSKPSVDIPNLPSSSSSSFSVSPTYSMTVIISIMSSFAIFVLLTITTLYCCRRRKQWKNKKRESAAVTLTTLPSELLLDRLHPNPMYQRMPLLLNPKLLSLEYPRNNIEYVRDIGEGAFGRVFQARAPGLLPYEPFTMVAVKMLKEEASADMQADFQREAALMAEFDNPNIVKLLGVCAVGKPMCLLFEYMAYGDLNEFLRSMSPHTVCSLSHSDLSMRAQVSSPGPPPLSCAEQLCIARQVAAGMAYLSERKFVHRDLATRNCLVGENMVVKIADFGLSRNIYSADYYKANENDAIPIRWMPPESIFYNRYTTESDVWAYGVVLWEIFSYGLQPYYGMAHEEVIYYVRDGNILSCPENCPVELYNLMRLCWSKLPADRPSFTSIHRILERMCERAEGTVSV

[2] = target: T2, Serine/threonine-protein kinase Nek1 (Homo sapiens) (UniProt Q96PY6); assay: Inhibition of human NEK1 at 18.6 nM by HotSpot assay relative to control
T2 sequence (whole entry): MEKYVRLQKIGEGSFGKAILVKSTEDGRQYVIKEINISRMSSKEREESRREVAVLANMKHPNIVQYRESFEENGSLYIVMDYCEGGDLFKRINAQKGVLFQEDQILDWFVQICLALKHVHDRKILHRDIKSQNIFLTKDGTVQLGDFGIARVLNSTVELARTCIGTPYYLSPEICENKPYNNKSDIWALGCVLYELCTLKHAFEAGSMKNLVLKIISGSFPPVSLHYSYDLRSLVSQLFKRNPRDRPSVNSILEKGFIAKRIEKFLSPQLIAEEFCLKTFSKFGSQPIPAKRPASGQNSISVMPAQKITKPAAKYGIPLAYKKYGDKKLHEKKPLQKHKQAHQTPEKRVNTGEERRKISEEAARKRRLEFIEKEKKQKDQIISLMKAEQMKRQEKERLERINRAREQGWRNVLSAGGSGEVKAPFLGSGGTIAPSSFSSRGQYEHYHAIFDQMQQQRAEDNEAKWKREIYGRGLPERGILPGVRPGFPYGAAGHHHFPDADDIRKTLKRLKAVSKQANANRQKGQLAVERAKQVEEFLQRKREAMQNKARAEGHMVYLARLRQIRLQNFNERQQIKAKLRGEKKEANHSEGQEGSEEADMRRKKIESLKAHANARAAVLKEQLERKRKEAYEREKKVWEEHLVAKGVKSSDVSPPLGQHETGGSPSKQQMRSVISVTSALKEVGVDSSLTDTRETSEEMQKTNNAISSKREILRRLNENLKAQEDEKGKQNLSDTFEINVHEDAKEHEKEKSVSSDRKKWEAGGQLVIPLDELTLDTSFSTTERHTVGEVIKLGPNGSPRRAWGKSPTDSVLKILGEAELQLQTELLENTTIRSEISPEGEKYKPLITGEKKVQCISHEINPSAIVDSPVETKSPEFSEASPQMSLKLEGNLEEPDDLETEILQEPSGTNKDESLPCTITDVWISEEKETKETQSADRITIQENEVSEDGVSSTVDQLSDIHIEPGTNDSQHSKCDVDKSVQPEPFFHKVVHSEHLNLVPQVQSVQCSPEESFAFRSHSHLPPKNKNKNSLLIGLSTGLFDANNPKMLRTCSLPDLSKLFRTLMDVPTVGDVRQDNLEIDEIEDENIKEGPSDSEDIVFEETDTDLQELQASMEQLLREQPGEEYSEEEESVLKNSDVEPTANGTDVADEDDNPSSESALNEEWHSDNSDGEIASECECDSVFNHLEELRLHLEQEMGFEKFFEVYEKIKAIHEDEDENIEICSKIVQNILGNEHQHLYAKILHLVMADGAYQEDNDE

[3] = target: T3, Mitogen-activated protein kinase 13 (Homo sapiens) (UniProt O15264); assay: Inhibition of human MAPK13 at 18.6 nM by HotSpot assay relative to control
T3 sequence (whole entry): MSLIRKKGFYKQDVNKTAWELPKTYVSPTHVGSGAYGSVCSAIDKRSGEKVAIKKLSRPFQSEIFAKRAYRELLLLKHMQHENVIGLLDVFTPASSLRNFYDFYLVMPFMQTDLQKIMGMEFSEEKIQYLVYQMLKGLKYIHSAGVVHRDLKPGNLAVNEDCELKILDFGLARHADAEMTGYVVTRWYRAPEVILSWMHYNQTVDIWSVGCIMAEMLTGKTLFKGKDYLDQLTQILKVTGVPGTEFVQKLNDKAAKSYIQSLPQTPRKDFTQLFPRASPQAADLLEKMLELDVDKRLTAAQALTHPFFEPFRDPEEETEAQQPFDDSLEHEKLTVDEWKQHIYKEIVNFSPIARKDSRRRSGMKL

[4] = organism: Homo sapiens; assay: Inhibition of human CDK2/cyclin A at 18.6 nM by HotSpot assay relative to control
[5] = target: Calcium/calmodulin-dependent protein kinase kinase 1 (Homo sapiens) (UniProt Q8N5S9); assay: Inhibition of human CAMKK1 at 18.6 nM by HotSpot assay relative to control
[6] = target: Casein kinase I isoform gamma-1 (Homo sapiens) (UniProt Q9HCP0); assay: Inhibition of human CK1g1 at 500 nM by HotSpot assay relative to control
[7] = target: Protein kinase C beta type (Homo sapiens) (UniProt P05771); assay: Inhibition of human PKCb2 at 1.82 nM by HotSpot assay relative to control
[8] = target: Serine/threonine-protein kinase 26 (Homo sapiens) (UniProt Q9P289); assay: Inhibition of human MST4 at 1.82 nM by HotSpot assay relative to control
[9] = target: Serine/threonine-protein kinase PAK 3 (Homo sapiens) (UniProt O75914); assay: Inhibition of human PAK3 at 1.82 nM by HotSpot assay relative to control
Sequence of Serine/threonine-protein kinase PAK 3 (Homo sapiens) (O75914 whole entry, looked up): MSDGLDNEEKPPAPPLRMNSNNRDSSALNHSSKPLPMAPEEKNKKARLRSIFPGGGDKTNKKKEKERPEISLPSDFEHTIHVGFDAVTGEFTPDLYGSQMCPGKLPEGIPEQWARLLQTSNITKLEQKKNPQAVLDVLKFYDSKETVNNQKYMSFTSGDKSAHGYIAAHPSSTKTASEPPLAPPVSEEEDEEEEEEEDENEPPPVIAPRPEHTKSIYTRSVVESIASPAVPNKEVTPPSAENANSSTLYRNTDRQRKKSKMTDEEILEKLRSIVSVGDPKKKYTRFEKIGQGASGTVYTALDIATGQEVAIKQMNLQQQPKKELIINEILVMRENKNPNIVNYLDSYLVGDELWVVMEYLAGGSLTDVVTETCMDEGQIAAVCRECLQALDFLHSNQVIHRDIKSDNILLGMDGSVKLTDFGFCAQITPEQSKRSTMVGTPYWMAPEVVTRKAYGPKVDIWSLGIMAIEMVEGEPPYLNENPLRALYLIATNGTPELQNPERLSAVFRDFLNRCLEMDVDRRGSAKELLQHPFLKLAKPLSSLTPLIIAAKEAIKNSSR

Sequence of Serine/threonine-protein kinase 26 (Homo sapiens) (Q9P289 2-416 limits assumed): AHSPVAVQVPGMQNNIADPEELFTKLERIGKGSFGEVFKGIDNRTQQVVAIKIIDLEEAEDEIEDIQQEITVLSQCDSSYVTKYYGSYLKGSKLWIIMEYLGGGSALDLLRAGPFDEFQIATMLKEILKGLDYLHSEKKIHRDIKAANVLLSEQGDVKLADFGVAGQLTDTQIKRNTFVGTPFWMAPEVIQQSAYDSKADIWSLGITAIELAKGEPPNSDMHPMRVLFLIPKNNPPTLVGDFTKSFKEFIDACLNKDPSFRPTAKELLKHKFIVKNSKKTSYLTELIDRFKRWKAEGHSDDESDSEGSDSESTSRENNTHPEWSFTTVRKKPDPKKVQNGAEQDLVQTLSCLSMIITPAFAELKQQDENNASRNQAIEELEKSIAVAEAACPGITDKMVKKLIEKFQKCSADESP
Sequence of Protein kinase C beta type (Homo sapiens) (P05771 2-671 limits assumed): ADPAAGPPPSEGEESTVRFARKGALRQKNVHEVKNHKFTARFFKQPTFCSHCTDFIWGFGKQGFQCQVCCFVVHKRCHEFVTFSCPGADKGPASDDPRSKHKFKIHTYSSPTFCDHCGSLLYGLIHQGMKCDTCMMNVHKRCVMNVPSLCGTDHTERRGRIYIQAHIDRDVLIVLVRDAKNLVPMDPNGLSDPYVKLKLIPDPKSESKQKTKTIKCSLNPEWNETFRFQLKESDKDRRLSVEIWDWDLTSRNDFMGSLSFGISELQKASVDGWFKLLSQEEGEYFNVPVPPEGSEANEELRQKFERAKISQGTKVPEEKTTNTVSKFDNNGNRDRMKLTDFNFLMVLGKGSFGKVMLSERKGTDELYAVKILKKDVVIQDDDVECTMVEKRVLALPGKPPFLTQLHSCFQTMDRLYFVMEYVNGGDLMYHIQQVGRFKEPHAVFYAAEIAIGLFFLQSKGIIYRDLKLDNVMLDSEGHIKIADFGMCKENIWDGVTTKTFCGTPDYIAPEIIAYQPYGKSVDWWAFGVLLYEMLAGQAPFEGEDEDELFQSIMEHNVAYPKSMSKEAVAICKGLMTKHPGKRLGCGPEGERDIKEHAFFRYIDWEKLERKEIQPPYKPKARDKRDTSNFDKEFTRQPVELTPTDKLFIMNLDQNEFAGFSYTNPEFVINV
Sequence of Casein kinase I isoform gamma-1 (Homo sapiens) (Q9HCP0 whole entry, looked up, canonical isoform): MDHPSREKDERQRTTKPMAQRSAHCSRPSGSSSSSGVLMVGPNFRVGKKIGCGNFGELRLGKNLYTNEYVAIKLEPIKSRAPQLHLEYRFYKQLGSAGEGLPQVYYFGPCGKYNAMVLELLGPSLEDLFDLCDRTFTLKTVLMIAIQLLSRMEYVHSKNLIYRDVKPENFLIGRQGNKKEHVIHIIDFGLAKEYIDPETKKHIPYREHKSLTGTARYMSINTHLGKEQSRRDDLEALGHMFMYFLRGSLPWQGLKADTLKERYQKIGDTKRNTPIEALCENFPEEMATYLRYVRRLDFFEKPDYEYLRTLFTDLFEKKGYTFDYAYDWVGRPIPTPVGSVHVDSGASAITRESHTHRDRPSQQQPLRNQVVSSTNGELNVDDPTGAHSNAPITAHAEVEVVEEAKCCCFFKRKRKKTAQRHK
Sequence of Calcium/calmodulin-dependent protein kinase kinase 1 (Homo sapiens) (Q8N5S9 whole entry, looked up, canonical isoform): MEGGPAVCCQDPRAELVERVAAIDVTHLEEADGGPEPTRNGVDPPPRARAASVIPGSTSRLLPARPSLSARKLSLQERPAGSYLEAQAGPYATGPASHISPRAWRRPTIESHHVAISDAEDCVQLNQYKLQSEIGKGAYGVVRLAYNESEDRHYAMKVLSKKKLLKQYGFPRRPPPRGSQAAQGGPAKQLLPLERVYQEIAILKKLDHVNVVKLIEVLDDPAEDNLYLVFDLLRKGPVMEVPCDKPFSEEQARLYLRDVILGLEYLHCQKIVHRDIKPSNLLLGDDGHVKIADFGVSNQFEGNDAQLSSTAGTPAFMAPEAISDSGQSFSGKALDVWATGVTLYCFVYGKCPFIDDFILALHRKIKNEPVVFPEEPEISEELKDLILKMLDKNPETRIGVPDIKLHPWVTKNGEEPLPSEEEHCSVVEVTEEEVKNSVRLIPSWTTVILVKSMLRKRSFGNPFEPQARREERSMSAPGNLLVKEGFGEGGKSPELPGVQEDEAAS

inhibition [1]: 1.47%
inhibition [2]: 5.45%
inhibition [3]: -4.06%
inhibition [4]: -1.46%
inhibition [5]: 5.54%
SMILES: C[C@]1(O)C[C@@H](c2nc(-c3ccc4ccc(-c5ccccc5)nc4c3)c3c(N)nccn32)C1

SMILES: Nc1n[nH]c2nnc(-c3c(-c4ccccc4)nn4ccccc34)cc12
inhibition [6]: -3.88%

inhibition [7]: -3.58%
inhibition [8]: -1.09%
inhibition [9]: -2.89%
SMILES: C[C@@]1(C(=O)Nc2ccc(F)nc2)CCCN1c1nc(Nc2cc(C3CC3)n[nH]2)c2cccn2n1
